Here are results for eight compounds from patent publication EP0367747A2, “Dideoxy-L-arabinitol derivatives as antiviral compounds” (G.D. Searle & Co., priority 1988, dated 1990).

Data set [1] concerns Sheep choroid plexus(SCP) cells. As to the kind of experiment: Toxicity of compounds in control wells without virus, graded morphologically 0 to 4. In kind it is cell-based. The arrangement: key: 0 = no toxicity; 4 = total cell lyses. As to conditions: 0 to 4 scale. The protocol: (§1) SCP cells were cultured in 6-well plates to confluence. Wells were washed two times with serum free Minimal Essential Medium (MEM) to remove FBS. 0.2ml of virus was added per well in MEM supplemented with 4mM glutamine and gentamycin. After 1 hour adsorption, the virus was aspirated from each well. The appropriate concentration of each compound in 5 ml of Medium 199 (M-199) supplemented with 2% lamb serum, 4mM glutamine, 0.5% agarose and gentamycin was added to each well. Cultures were incubated at 37°C in a humidified 5% CO₂ incubator for 3-4 weeks. To terminate the test: cultures were fixed in 10% formalin, the agar removed, the monolayers stained with 1% crystal violet and plaques counted. Each compound concentration was run in triplicate. […] 0 is no toxicity observed while 4 is total lysing of the cell monolayer.
Control wells without virus were completed to determine the toxicity of compounds.

The target in a further data set is T1, Yeast alpha-glucosidase (Saccharomyces cerevisiae, UniProt P53341).
T1 construct: purchased Sigma
Briefly: Alpha-glucosidase inhibition assay, pH 7.4 (p-nitrophenol release). In kind it is biochemical. As to conditions: for inhibition at 1000 µM: at 1.0 mM; for inhibition at 1000 µM / inhibition at 100 µM: read-out: α-Glucosidase % Inhibition. On the procedure: (§2) Yeast alpha-glucosidase and almond beta-glucosidase activities were measured by a modification of the method of Evans, et al., Phytochemistry 22, 768-770 (1983). The modifications included 1) assay of activities at pH 7.4 in HEPES (N-2-hydroxyethylpiperazine-N′-2-ethanesulfonic acid) buffer, 2) measurement in 96 well microtiter plates and 3) inclusion of 10% DMSO in control and test samples. The release of p-nitrophenol from the substrate p-nitrophenylglycoside was measured spectrophotometrically in the presence and absence of test compound. Each assay included a known inhibitor of the enzyme as a standard. IC₅₀ values were determined for compounds which inhibited the enzymes more than 50% at a 1 millimolar concentration. To 100 µl 50 mM HEPES buffer, pH 7.4, in a microtiter plate, add 20 µl test compound in DMSO (DMSO alone in control), 40 µl (0.013 units) yeast alpha-glucosidase (Sigma) in HEPES buffer and pre-incubate at room temperature for 15 minutes. […] Absorption change was measured at 15 to 25 minutes (reaction was linear for at least 30 minutes). Each sample was tested in triplicate. IC₅₀ values were determined from the linear portion of the log concentration vs % inhibition curve obtained from a minimum of 3 points. Deoxynojirimycin was used as standard inhibitor.

Data set [2] relates to almond beta-glucosidase. Briefly: Beta-glucosidase inhibition assay, pH 4.8 (p-nitrophenol release). As to conditions: for β-Glucosidase pH 4.8 % Inhibition: Table 5; for pIC50: Table 3, at pH 4.8, read-out: β-glucosidase IC₅₀. Type of data set: biochemical. On the procedure:
Yeast alpha-glucosidase and almond beta-glucosidase activities were measured by a modification of the method of Evans, et al., Phytochemistry 22, 768-770 (1983). The modifications included 1) assay of activities at pH 7.4 in HEPES (N-2-hydroxyethylpiperazine-N′-2-ethanesulfonic acid) buffer, 2) measurement in 96 well microtiter plates and 3) inclusion of 10% DMSO in control and test samples. The release of p-nitrophenol from the substrate p-nitrophenylglycoside was measured spectrophotometrically in the presence and absence of test compound. Each assay included a known inhibitor of the enzyme as a standard. IC₅₀ values were determined for compounds which inhibited the enzymes more than 50% at a 1 millimolar concentration. To 100 µl 50 mM sodium citrate buffer, pH 4.8, in a microtiter plate, add 15 µl test compound in DMSO (DMSO alone in control), 20 µl (.017 units) beta-glucosidase (Sigma) in citrate buffer and pre-incubate at room temperature for 15 minutes. Add 25 µl 2.50 mM p-nitrophenyl-beta-D-glucopyranside in citrate buffer, as substrate. Incubate at room temperature 20 minutes (reaction is linear for at least 30 minutes). Add 50 µl 0.4 M NaOH. Read absortion change at 405 nm in a Biotek EIA Autoreader. Each sample was tested in triplicate. IC₅₀ values were determined from the linear portion of the log concentration vs % inhibition curve obtained from a minimum of 3 points. Castanospermine was used as standard inhibitor.

For data set [3], the system named is almond beta-glucosidase. Briefly: Beta-glucosidase inhibition assay, pH 7.4 (p-nitrophenol release). As to conditions: for β-Glucosidase pH 7.4 % Inhibition: Table 5; for pIC50: Table 3, at pH 7.4, read-out: β-glucosidase IC₅₀. Type of data set: biochemical. The protocol:
as §2, with “µl (0.136” for “µl (0.013”, “units) beta-glucosidase” for “units) yeast alpha-glucosidase”, “(reaction is” for “(reaction was”, “points. Castanospermine” for “points. Deoxynojirimycin”

In another data set the test system is visna virus. As to the kind of experiment: Inhibition of visna virus in vitro (plaque reduction assay / 96 well plate assay) in SCP cells. Type of data set: cell-based. Also on record: key to Antiviral Activity: A = active compound; I = inactive. As to conditions: for Antiviral Activity: Table 4; for pEC50: inhibition of visna virus, read-out: EC₅₀. On the procedure: Various compounds as prepared above were tested for inhibition of visna virus in vitro in a plaque reduction assay as follows:
Sheep choroid plexus(SCP) cells were obtained from American Type Culture Collection (ATCC) catalogue number CRL 1700 and were routinely passaged in vitro in Dulbecco's Modified Eagles (DME) medium supplemented with 20% fetal bovine serum (FBS). SCP cells were passaged once per week at a 1:2 or 1:3 split ratio. Visna was titrated by plaque assay in six-well plates. Virus pools were stored at -70°C.
as §1
The 96 well plate assay was performed similarly to the plaque assay above with modifications. SCP cells were seeded at 1 x 10⁴ cells per well in 0.1 ml DME medium. When confluent, the wells were washed with serum free MEM and 25ul of virus added in M-199 supplemented with 2% lamb serum. After 1 hour, 75uL of medium containing test compound was added to each well containing virus. After 2-3 weeks incubation the cytopathic effect of the virus was determined by staining with a vital stain. Cell viability was measured by determining stain density using a 96 well plate reader.
On the technique in general: In a plaque reduction assay, fewer plaques than in the control indicate reduced infectivity or spread.

[4] abbreviates: Table 3, pH 7.4, read-out: α-glucosidase IC₅₀.

pEC50, pIC50: −log10 of the molar value. Where two headings read alike, the source gives them in different places. Marks after values point to notes of the source that are not given here.

T1 sequence (P53341 whole entry): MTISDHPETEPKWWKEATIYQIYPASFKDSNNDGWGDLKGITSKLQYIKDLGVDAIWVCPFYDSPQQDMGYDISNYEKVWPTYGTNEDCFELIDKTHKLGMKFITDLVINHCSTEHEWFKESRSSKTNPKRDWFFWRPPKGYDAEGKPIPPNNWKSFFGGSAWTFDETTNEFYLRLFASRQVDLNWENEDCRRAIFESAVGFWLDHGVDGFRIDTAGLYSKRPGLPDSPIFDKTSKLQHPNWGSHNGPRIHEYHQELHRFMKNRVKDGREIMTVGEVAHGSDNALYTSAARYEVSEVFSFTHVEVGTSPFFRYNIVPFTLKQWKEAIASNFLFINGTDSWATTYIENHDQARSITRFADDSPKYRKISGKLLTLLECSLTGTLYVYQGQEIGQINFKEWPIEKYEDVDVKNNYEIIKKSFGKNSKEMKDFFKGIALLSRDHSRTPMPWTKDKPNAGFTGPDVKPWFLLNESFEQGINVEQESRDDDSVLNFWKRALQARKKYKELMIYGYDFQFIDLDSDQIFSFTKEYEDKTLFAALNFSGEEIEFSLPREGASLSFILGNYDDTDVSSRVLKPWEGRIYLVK

By inhibition is commonly meant the drop in the measured response relative to a control, in per cent. For the compound `CC(=O)OC[C@H]1[C@H](OC(C)=O)[C@@H](OC(C)=O)CN1C(=O)Cc1ccccc1` [Example 28, 1,4-(Phenylacetylimino)-1,4-dideoxy-L-arabinitol, triacetate], the Toxicity in data set [1] (Table 4, 0.01 mM Concn.) is given as 0; in data set [1] (Table 4, 0.1 mM Concn.), 0; in data set [1] (Table 4, 1.0 mM Concn.) it was 1. For the same compound, the inhibition at 1000 µM on Yeast alpha-glucosidase (Table 5) stood at 30%. For the same compound, the “β-Glucosidase pH 4.8 % Inhibition” value in the data set with almond beta-glucosidase [2] (at 1.0 mM) was found to be 0%. In addition, the “β-Glucosidase pH 7.4 % Inhibition” value in the data set with almond beta-glucosidase [3] (at 1.0 mM) is 6%. Also, the “Antiviral Activity” value with visna virus (0.01 mM Concn.), in the data set with visna virus (0.1 mM Concn.) and in the data set with visna virus (1.0 mM Concn.) was “A” throughout. Also, the pEC50 in the data set with visna virus (Visna-maedi virus) is 3.00.
For `CC(=O)OCCN1C[C@H](OC(C)=O)[C@@H](OC(C)=O)[C@@H]1COC(C)=O` [Example 3, 1,4-([2-Acetyloxyethyl]imino)-1,4-dideoxy-L-arabinitol, triacetate], the Toxicity in data set [1] (Concentration 0.001 mM), in data set [1] (Concentration 0.01 mM), in data set [1] (Concentration 0.1 mM) and in data set [1] (Concentration 1.0 mM) was 0 in each case. Besides, the inhibition at 1000 µM was 15% at Yeast alpha-glucosidase (Table 5) and 90% with visna virus (Visna-maedi virus, Concentration 1.0 mM). Besides, the “β-Glucosidase pH 4.8 % Inhibition” value with almond beta-glucosidase [2] (at 1.0 mM) was determined as 12%. Moreover, the “β-Glucosidase pH 7.4 % Inhibition” value in the data set on almond beta-glucosidase [3] (at 1.0 mM) is on record as 5%. Moreover, the inhibition at 1 µM with visna virus (Visna-maedi virus, Concentration 0.001 mM) is -46%. For the same compound, the inhibition at 10 µM with visna virus (Visna-maedi virus, Concentration 0.01 mM) was -64%. The inhibition at 100 µM with visna virus (Visna-maedi virus, Concentration 0.1 mM) came out at 72%.
As to `CC(=O)OC[C@H]1[C@H](OC(C)=O)[C@@H](OC(C)=O)CN1C(=O)OCc1ccccc1` [Example 20, 1,4-(Benzyloxycarbonylimino)-1,4-dideoxy-L-arabinitol, triacetate], the Toxicity in data set [1] (Table 4, 0.1 mM Concn.) is given as 0; in data set [1] (Table 4, 1.0 mM Concn.), 0. Besides, the inhibition at 1000 µM at Yeast alpha-glucosidase (Table 5) came out at 18%. For the same compound, the “β-Glucosidase pH 4.8 % Inhibition” value in the data set on almond beta-glucosidase [2] (at 1.0 mM) stood at 5%. Also, in the data set on almond beta-glucosidase [3] (at 1.0 mM), the “β-Glucosidase pH 7.4 % Inhibition” value worked out at 6%. In the data set on visna virus (Visna-maedi virus), the pEC50 is 3.00.
With `OC[C@H]1[C@H](O)[C@@H](O)CN1Cc1ccc(Cl)cc1` [Example 8, 1,4-([4-Chlorophenyl]methylimino)-1,4-dideoxy-L-arabinitol], the Toxicity in data set [1] (Table 4, 0.01 mM Concn.) turned out to be 0; in data set [1] (Table 4, 1.0 mM Concn.), 3. The pIC50 was 5.66 at Yeast alpha-glucosidase (setting [4]), less than 3.00 at almond beta-glucosidase [2] and less than 3.00 on almond beta-glucosidase [3]. For the same compound, in the data set on almond beta-glucosidase [2] (at 1.0 mM), the “β-Glucosidase pH 4.8 % Inhibition” value turned out to be 19%. Also, the “β-Glucosidase pH 7.4 % Inhibition” value in the data set on almond beta-glucosidase [3] (at 1.0 mM) is reported as 26%.
Regarding `CN1CC(O)C(O)C1CO` [Example 18, 1,4-(Methylimino)-1,4-dideoxy-L-arabinitol], the figures for the pIC50 on Yeast alpha-glucosidase (setting [4]), on almond beta-glucosidase [2] and at almond beta-glucosidase [3] were 4.34, 4.44 and 4.64, respectively. Further, the pEC50 in the data set on visna virus (Visna-maedi virus) is 4.00.
Turning to `CCCCN1CC(OC(=O)CCC)C(OC(=O)CCC)C1COC(=O)CCC` [Example 26, 1,4-(Butylimino)-1,4-dideoxy-L-arabinitol, tributyrate], the Toxicity in data set [1] (Table 4, 0.1 mM Concn.) is reported as 0; in data set [1] (Table 4, 1.0 mM Concn.) it was 2. Besides, at Yeast alpha-glucosidase (Table 5), the inhibition at 100 µM is 20%. Besides, the “β-Glucosidase pH 4.8 % Inhibition” value in the data set on almond beta-glucosidase [2] (at 100 µM (***)) came out at 1%***. Also, the “β-Glucosidase pH 7.4 % Inhibition” value in the data set on almond beta-glucosidase [3] (at 100 µM (***)) came out at 1%***. The pEC50 in the data set on visna virus (Visna-maedi virus) was 3.00.
On to `OCCN1C[C@H](O)[C@@H](O)[C@@H]1CO` [Example 2, 1,4-Dideoxy-1,4-([2-hydroxyethyl]imino)-L-arabinitol], for which the Toxicity in data set [1] (Table 4, 0.01 mM Concn.) amounted to 0; in data set [1] (Table 4, 0.1 mM Concn.), 0. Besides, the pIC50 on Yeast alpha-glucosidase (Table 5, values marked *, read-out: α-Glucosidase IC₅₀) is 3.75. Also, in the data set with almond beta-glucosidase [2] (at 1.0 mM), the “β-Glucosidase pH 4.8 % Inhibition” value turned out to be 14%. In addition, the “β-Glucosidase pH 7.4 % Inhibition” value in the data set on almond beta-glucosidase [3] (at 1.0 mM) was found to be 45%.
For the compound `CCC(=O)OC[C@H]1[C@H](OC(=O)CC)[C@@H](OC(=O)CC)CN1C(=O)OCc1ccccc1` [Example 29, 1,4-(Benzyloxycarbonylimino)-1,4-dideoxy-L-arabinitol, tripropionate], the Toxicity is listed as 0 in data set [1] (Table 4, 0.001 mM Concn.); 0 in data set [1] (Table 4, 0.01 mM Concn.); 0 in data set [1] (Table 4, 0.1 mM Concn.). Also, at Yeast alpha-glucosidase (Table 5), the inhibition at 100 µM was found to be 41%. Further, the “β-Glucosidase pH 4.8 % Inhibition” value in the data set on almond beta-glucosidase [2] (at 100 µM (***)) was 2%***. In addition, the “β-Glucosidase pH 7.4 % Inhibition” value with almond beta-glucosidase [3] (at 100 µM (***)) is 5%***. In addition, the “Antiviral Activity” value with visna virus (0.001 mM Concn.), in the data set on visna virus (0.01 mM Concn.) and in the data set with visna virus (0.1 mM Concn.) was “A” in each case.
